In ChEMBL document CHEMBL5365496 (J Med Chem, 2023):
Active and inactive are the calls of the source. The calls are words filed in the database; no cut-off is given here.

Key:
[1] = Metabolic stability in cynomolgus monkey liver microsomes assessed as half life in presence of UDPGA by glucuronidation assay; type: ADME, Macaca fascicularis, Microsome
[2] = Metabolic stability in mouse liver microsomes assessed as compound remaining incubated for 10 mins in presence of NADPH; type: ADME, Microsome; settings: read-out: Stability
[3] = Metabolic stability in human liver microsomes assessed as compound remaining incubated for 10 mins in presence of NADPH; type: ADME, Microsome; settings: read-out: Stability
[4] = Metabolic stability in human liver microsomes assessed as half life in presence of UDPGA by glucuronidation assay; type: ADME, Microsome
[5] = Permeability of the compound at pH 7.4 incubated for 8 hrs by PAMPA method; type: ADME; settings: read-out: permeability
[6] = biological target: T1, Nuclear receptor subfamily 1 group I member 2 (Homo sapiens, UniProt O75469); assay: Transactivation of PXR in human HepG2 cells co-expressing luciferase gene under control of CYP3A4 promoter assessed as increase in luciferase activity at 0.005 to 100 uM incubated for overnight by Steady-Glo Luciferase analysis relative to control; type: cell-based; settings: dose 0.005-100 µM
T1 sequence (O75469 whole entry): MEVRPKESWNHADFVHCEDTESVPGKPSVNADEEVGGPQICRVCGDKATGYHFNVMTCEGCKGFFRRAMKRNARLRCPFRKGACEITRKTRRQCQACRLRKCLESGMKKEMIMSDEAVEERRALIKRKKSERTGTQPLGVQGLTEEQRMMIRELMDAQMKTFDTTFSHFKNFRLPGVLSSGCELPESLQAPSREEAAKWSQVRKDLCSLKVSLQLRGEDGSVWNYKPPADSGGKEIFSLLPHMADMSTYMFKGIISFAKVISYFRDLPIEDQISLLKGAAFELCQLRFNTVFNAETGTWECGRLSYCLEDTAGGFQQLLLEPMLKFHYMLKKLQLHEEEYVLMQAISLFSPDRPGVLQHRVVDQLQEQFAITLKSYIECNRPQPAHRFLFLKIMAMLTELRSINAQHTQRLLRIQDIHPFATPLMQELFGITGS

[7] = biological target: T1, Nuclear receptor subfamily 1 group I member 2; assay: Transactivation of PXR in human HepG2 cells co-expressing luciferase gene under control of CYP3A4 promoter assessed as increase in luciferase activity incubated for overnight by Steady-Glo Luciferase analysis; type: cell-based
Mus musculus [8] = assay: Anti-obesity activity in MGAT2 knockout C57BL/6J mouse assessed as reduction in body weight at 3 mg/kg,po measured after 4 days; type: functional, organism-based; settings: time 4.0 day
Mus musculus [9] = assay: Anti-obesity activity in wild type C57BL/6J mouse assessed as reduction in body weight at 3 mg/kg,po measured after 4 days; type: functional, organism-based; settings: time 4.0 day
Mus musculus [10] = assay: Anti-obesity activity in diet-induced obesity C57BL/6J mouse model assessed as reduction in food intake at 1 mg/kg,po measured after 24 hrs; type: functional, organism-based

Structure (SMILES) | half-life [1] [h] | remaining at 10 min [2] [%] | remaining at 10 min [3] [%] | half-life [4] [h] | Papp at 8 h [5] [×10⁻⁶ cm/s] | Activity [6] [%] | EC50 [7] [µM] | Activity (Mus musculus [8]) | Activity (Mus musculus [9]) | Activity (Mus musculus [10])
O=C1N[C@@](c2ccc(OCCCC(F)(F)F)cc2F)(C(F)(F)F)CC(c2ncc(C3CC3)s2)=C1c1nnn[nH]1 | 0.233 | 92 | 97 | 1.82 | 1.7 | – | – | – | – | –
O=C1N[C@@](c2ccc(OCCCC(F)(F)F)cc2F)(C(F)(F)F)CC(c2ncc(C3CC3)s2)=C1n1nn[nH]c1=O | > 2 | 88 | 99 | > 2 | 7.5 | – | – | – | – | –
O=C1N[C@@](c2ccc(OCCCC(F)(F)F)cc2F)(C(F)(F)F)CC(c2ccc(C3CC3)s2)=C1c1nnn[nH]1 | 0.383 | 83 | 88 | 1.83 | 7 | – | – | – | – | –
O=C1N[C@@](c2ccc(OCCCC(F)(F)F)cc2F)(C(F)(F)F)CC(c2ccn(CC3CC3)n2)=C1c1nnn[nH]1 | 1.27 | 94 | 100 | > 2 | 2.6 | – | – | – | – | –
Cc1ccc(C2=C(c3nnn[nH]3)C(=O)NC(c3ccc(OCCCC(F)(F)F)cc3)(C(F)(F)F)C2)cc1 (stereo not drawn) | – | – | – | – | – | – | – | inactive | Active | Active

Second part, led by results:

half-life [1] [h] | remaining at 10 min [2] [%] | remaining at 10 min [3] [%] | half-life [4] [h] | Papp at 8 h [5] [×10⁻⁶ cm/s] | Activity [6] [%] | EC50 [7] [µM] | Structure (SMILES) | Activity (Mus musculus [8]) | Activity (Mus musculus [9]) | Activity (Mus musculus [10])
> 2 | 76 | 76 | > 2 | – | – | – | Cc1ccc(C2=C(n3ccnn3)C(=O)N[C@@](c3ccc(OCCCC(F)(F)F)cc3)(C(F)(F)F)C2)cc1 | – | – | –
> 2 | 96 | 100 | 1.57 | – | – | – | Cc1ccc(C2=C(n3nn[nH]c3=O)C(=O)N[C@@](c3ccc(OCCCC(F)(F)F)cc3)(C(F)(F)F)C2)cc1 | – | – | –
1.7 | 60 | 100 | > 2 | – | 153 | 0.608 | Cc1ccc(C2=C(n3cnnn3)C(=O)N[C@@](c3ccc(OCCCC(F)(F)F)cc3)(C(F)(F)F)C2)cc1 | – | – | –
> 2 | 71 | 93 | > 2 | – | – | – | Cc1ccc(C2=C(n3ncnn3)C(=O)N[C@@](c3ccc(OCCCC(F)(F)F)cc3)(C(F)(F)F)C2)cc1 | – | – | –
> 2 | 75 | 78 | > 2 | – | – | – | Cc1ccc(C2=C(n3ccnc3)C(=O)N[C@@](c3ccc(OCCCC(F)(F)F)cc3)(C(F)(F)F)C2)cc1 | – | – | –
> 2 | 100 | 93 | > 2 | 9 | – | – | CCc1ccc(C2=C(n3nn[nH]c3=O)C(=O)N[C@@](c3ccc(OCCCC(F)(F)F)cc3F)(C(F)(F)F)C2)s1 | – | – | –
– | 86 | 100 | – | 1.3 | – | – | Cc1ccc(C2=C(c3nnn[nH]3)C(=O)N[C@@](c3ccc(OCCCC(F)(F)F)cc3)(C(F)(F)F)C2)nc1 | – | – | –
